Results reported in ChEMBL document CHEMBL1147822, “One-pot synthesis and SAR study of cis-2,6-dialkyl-4-chloro-tetrahydropyrans” (2006).

Tests used:
Format in all cases: functional
[1] = system: SW1573; test: Antiproliferative activity against human SW1573 cells; conditions: for CC50: read-out: LC50 (the source's name)
[2] = system: WiDr; test: Antiproliferative activity against human WiDr cells
[3] = system: A2780; test: Antiproliferative activity against human A2780 cells; conditions: for CC50: read-out: LC50 (the source's name)

GI50 [1] [µM] | GI50 [3] [µM] | Structure (SMILES) | TGI [1] [µM] | GI50 [2] [µM] | LC50 (lethal concentration, 50% net cell kill) [2] [µM] | TGI [2] [µM] | TGI [3] [µM] | CC50 [3] [µM] | CC50 [1] [µM]
> 100 | > 100 | O=[N+]([O-])c1ccc([C@H]2C[C@@H](Cl)CCO2)cc1 |  | > 100 |  |  |  |  | 
> 100 | > 100 | CC(C)C[C@H]1C[C@@H](Cl)C[C@@H](C)O1 |  | > 100 |  |  |  |  | 
67 | 63 | CC(C)C[C@@H]1C[C@H](Cl)C[C@H](CC(C)C)O1 | 89 | > 100 |  |  | 90 |  | 
> 100 | > 100 | Cl[C@H]1CCO[C@@H](c2ccccc2)C1 |  | > 100 |  |  |  |  | 
> 100 | > 100 | CC(C)C[C@H]1C[C@@H](Cl)CCO1 |  | > 100 |  |  |  |  | 
30 | 21 | CC(C)C[C@H]1C[C@@H](Cl)C[C@@H](c2ccc([N+](=O)[O-])cc2)O1 |  | 38 |  |  | 64 |  | 

Structure (SMILES) | GI50 [1] [µM] | GI50 [3] [µM] | TGI [1] [µM] | GI50 [2] [µM] | LC50 (lethal concentration, 50% net cell kill) [2] [µM] | TGI [2] [µM] | TGI [3] [µM] | CC50 [3] [µM] | CC50 [1] [µM]
COc1ccc([C@@H]2C[C@H](Cl)C[C@H](CC(C)C)O2)cc1 | 30 | 25 | 80 | 36 | 95 | 73 | 57 | 95 | 
CC(C)C[C@H]1C[C@@H](Cl)C[C@@H](C2CCCCC2)O1 | 22 | 20 | 43 | 26 |  | 63 | 38 | 73 | 82
CC(C)C[C@H]1C[C@@H](Cl)C[C@@H](c2ccccc2)O1 | 24 | 17 | 48 | 39 |  | 88 | 35 | 72 | 90
